Laboratory results as given in US20170360791A1, “PHARMACEUTICAL COMPOSITIONS FOR INCREASING THE BIOAVAILABILITY OF POORLY SOLUBLE DRUGS” (ASTEX PHARMACEUTICALS, INC., priority 2014, published 2017).
Converted amounts (≈) assume the structure as drawn. Where two headings read alike, the source gives them in different places.

Columns and labels:
[1] = format: physicochemical; conditions: room temperature, >24 hours
Method: The suspensions were filtered through 0.2 or 0.45 microm filters prior to HPLC analysis. Some filtrates were diluted with MeOH prior to the HPLC analysis.

[2] = MP470FB content in the supernatant of Soluplus/SIF mixtures at various time-points; format: physicochemical; parameters: MP470FB content in the supernatant: unit not given here; conditions: 37° C.

S=C(NCc1ccc2c(c1)OCO2)N1CCN(c2ncnc3c2oc2ccccc23)CC1 [MP470 FB, amuvatinib]
solubility ([1]; TPGS, aqueous with cosolvent or surfactant or cyclodextrin, thermodynamic from solid, solvent TPGS, read-out: Solubility): 10 mg/mL (≈ 22.3 mM) | solubility ([1]; Tween 80, aqueous with cosolvent or surfactant or cyclodextrin, thermodynamic from solid, solvent Tween 80, read-out: Solubility): 6.6 mg/mL (≈ 14.7 mM) | solubility ([1]; acetic acid, organic solvent or mixture, thermodynamic from solid, solvent Acetic acid, read-out: Solubility): 2.9 mg/mL (≈ 6.48 mM) | solubility ([1]; anisole, organic solvent or mixture, thermodynamic from solid, solvent Anisole, read-out: Solubility): 1.8 mg/mL (≈ 4.02 mM) | solubility ([1]; ethanol, organic solvent or mixture, thermodynamic from solid, solvent Ethanol, read-out: Solubility): 0.3 mg/mL (≈ 0.67 mM) | solubility ([1]; ethyl cinnamate, organic solvent or mixture, thermodynamic from solid, solvent Ethyl cinnamate, read-out: Solubility): 3.9 mg/mL (≈ 8.71 mM) | solubility ([1]; linoleic acid, oil or lipid, thermodynamic from solid, solvent Linoleic acid, read-out: Solubility): 0.02 mg/mL (≈ 0.0447 mM) | solubility ([1]; oleic acid, oil or lipid, thermodynamic from solid, solvent Oleic acid, read-out: Solubility): 0.1 mg/mL (≈ 0.223 mM) | solubility ([1]; propylene carbonate, organic solvent or mixture, thermodynamic from solid, solvent Propylene carbonate, read-out: Solubility): 2.9 mg/mL (≈ 6.48 mM) | solubility ([1]; solvent Acetone): 2.6 mg/mL (≈ 5.81 mM) | solubility ([1]; solvent Benzyl alcohol): 63 mg/mL (≈ 141 mM) | solubility ([1]; solvent DMA): >240 mg/mL | solubility ([1]; solvent DMA, listed as MP470 free base): > 240 mg/mL | solubility ([1]; solvent DMSO): ~130 mg/mL (≈ 290 mM) | solubility ([1]; solvent Glycerin): 0.4 mg/mL (≈ 0.894 mM) | solubility ([1]; solvent Labrasol): 11 mg/mL (≈ 24.6 mM) | solubility ([1]; solvent Methanol): 0.5 mg/mL (≈ 1.12 mM) | solubility ([1]; solvent NMP): 300 to 360 mg/mL | solubility ([1]; solvent NMP, listed as MP470 free base): ~300 mg/mL (≈ 670 mM) | solubility ([1]; solvent PEG400): 14 mg/mL (≈ 31.3 mM) | solubility ([1]; solvent Phosal 50 PG): 0.5 mg/mL (≈ 1.12 mM) | solubility ([1]; solvent Propylene glycol): 0.4 mg/mL (≈ 0.894 mM) | solubility ([1]; solvent Tween 20): 8 mg/mL (≈ 17.9 mM) | solubility ([1]; triacetin, organic solvent or mixture, thermodynamic from solid, solvent Triacetin, read-out: Solubility): 1 mg/mL (≈ 2.23 mM) | MP470FB content in the supernatant ([2]; 0.2% Soluplus/SIF, MP470FB 0.2 mg/mL, 30 min): 0.082 | MP470FB content in the supernatant ([2]; 0.2% Soluplus/SIF, MP470FB 0.2 mg/mL, 2 hr): 0.084 | MP470FB content in the supernatant ([2]; 0.2% Soluplus/SIF, MP470FB 0.2 mg/mL, 4 hr): 0.089 | MP470FB content in the supernatant ([2]; 0.2% Soluplus/SIF, MP470FB 0.2 mg/mL, 6 hr): 0.087 | MP470FB content in the supernatant ([2]; 0.2% Soluplus/SIF, MP470FB 0.2 mg/mL, 24 hr): 0.107 | MP470FB content in the supernatant ([2]; 0.2% Soluplus/SIF, MP470FB 0.6 mg/mL, 30 min): 0.126 | MP470FB content in the supernatant ([2]; 0.2% Soluplus/SIF, MP470FB 0.6 mg/mL, 2 hr): 0.136 | MP470FB content in the supernatant ([2]; 0.2% Soluplus/SIF, MP470FB 0.6 mg/mL, 4 hr): 0.152 | MP470FB content in the supernatant ([2]; 0.2% Soluplus/SIF, MP470FB 0.6 mg/mL, 6 hr): 0.154 | MP470FB content in the supernatant ([2]; 0.2% Soluplus/SIF, MP470FB 0.6 mg/mL, 24 hr): 0.178 | MP470FB content in the supernatant ([2]; 0.5% Soluplus/SIF, MP470FB 0.2 mg/mL, 30 min): 0.092 | MP470FB content in the supernatant ([2]; 0.5% Soluplus/SIF, MP470FB 0.2 mg/mL, 2 hr): 0.097 | MP470FB content in the supernatant ([2]; 0.5% Soluplus/SIF, MP470FB 0.2 mg/mL, 4 hr): 0.103 | MP470FB content in the supernatant ([2]; 0.5% Soluplus/SIF, MP470FB 0.2 mg/mL, 6 hr): 0.107 | MP470FB content in the supernatant ([2]; 0.5% Soluplus/SIF, MP470FB 0.2 mg/mL, 24 hr): 0.127 | MP470FB content in the supernatant ([2]; 0.5% Soluplus/SIF, MP470FB 0.6 mg/mL, 30 min): 0.155 | MP470FB content in the supernatant ([2]; 0.5% Soluplus/SIF, MP470FB 0.6 mg/mL, 2 hr): 0.190 | MP470FB content in the supernatant ([2]; 0.5% Soluplus/SIF, MP470FB 0.6 mg/mL, 4 hr): 0.228 | MP470FB content in the supernatant ([2]; 0.5% Soluplus/SIF, MP470FB 0.6 mg/mL, 6 hr): 0.235 | MP470FB content in the supernatant ([2]; 0.5% Soluplus/SIF, MP470FB 0.6 mg/mL, 24 hr): 0.315 | MP470FB content in the supernatant ([2]; 1.0% Soluplus/SIF, MP470FB 0.2 mg/mL, 30 min): 0.096 | MP470FB content in the supernatant ([2]; 1.0% Soluplus/SIF, MP470FB 0.2 mg/mL, 2 hr): 0.104 | MP470FB content in the supernatant ([2]; 1.0% Soluplus/SIF, MP470FB 0.2 mg/mL, 4 hr): 0.115 | MP470FB content in the supernatant ([2]; 1.0% Soluplus/SIF, MP470FB 0.2 mg/mL, 6 hr): 0.118 | MP470FB content in the supernatant ([2]; 1.0% Soluplus/SIF, MP470FB 0.2 mg/mL, 24 hr): 0.135 | MP470FB content in the supernatant ([2]; 1.0% Soluplus/SIF, MP470FB 0.6 mg/mL, 30 min): 0.179 | MP470FB content in the supernatant ([2]; 1.0% Soluplus/SIF, MP470FB 0.6 mg/mL, 2 hr): 0.223 | MP470FB content in the supernatant ([2]; 1.0% Soluplus/SIF, MP470FB 0.6 mg/mL, 4 hr): 0.277 | MP470FB content in the supernatant ([2]; 1.0% Soluplus/SIF, MP470FB 0.6 mg/mL, 6 hr): 0.318 | MP470FB content in the supernatant ([2]; 1.0% Soluplus/SIF, MP470FB 0.6 mg/mL, 24 hr): 0.428 | MP470FB content in the supernatant ([2]; 2.0% Soluplus/SIF, MP470FB 0.2 mg/mL, 30 min): 0.101 | MP470FB content in the supernatant ([2]; 2.0% Soluplus/SIF, MP470FB 0.2 mg/mL, 2 hr): 0.110 | MP470FB content in the supernatant ([2]; 2.0% Soluplus/SIF, MP470FB 0.2 mg/mL, 4 hr): 0.126 | MP470FB content in the supernatant ([2]; 2.0% Soluplus/SIF, MP470FB 0.2 mg/mL, 6 hr): 0.138 | MP470FB content in the supernatant ([2]; 2.0% Soluplus/SIF, MP470FB 0.2 mg/mL, 24 hr): 0.170 | MP470FB content in the supernatant ([2]; 2.0% Soluplus/SIF, MP470FB 0.6 mg/mL, 30 min): 0.206 | MP470FB content in the supernatant ([2]; 2.0% Soluplus/SIF, MP470FB 0.6 mg/mL, 2 hr): 0.290 | MP470FB content in the supernatant ([2]; 2.0% Soluplus/SIF, MP470FB 0.6 mg/mL, 4 hr): 0.368 | MP470FB content in the supernatant ([2]; 2.0% Soluplus/SIF, MP470FB 0.6 mg/mL, 6 hr): 0.409 | MP470FB content in the supernatant ([2]; 2.0% Soluplus/SIF, MP470FB 0.6 mg/mL, 24 hr): 0.469 | MP470FB content in the supernatant ([2]; 5.0% Soluplus/SIF, MP470FB 0.2 mg/mL, 30 min): 0.114 | MP470FB content in the supernatant ([2]; 5.0% Soluplus/SIF, MP470FB 0.2 mg/mL, 2 hr): 0.124 | MP470FB content in the supernatant ([2]; 5.0% Soluplus/SIF, MP470FB 0.2 mg/mL, 4 hr): 0.129 | MP470FB content in the supernatant ([2]; 5.0% Soluplus/SIF, MP470FB 0.2 mg/mL, 6 hr): 0.137 | MP470FB content in the supernatant ([2]; 5.0% Soluplus/SIF, MP470FB 0.2 mg/mL, 24 hr): 0.144 | MP470FB content in the supernatant ([2]; 5.0% Soluplus/SIF, MP470FB 0.6 mg/mL, 30 min): 0.244 | MP470FB content in the supernatant ([2]; 5.0% Soluplus/SIF, MP470FB 0.6 mg/mL, 2 hr): 0.342 | MP470FB content in the supernatant ([2]; 5.0% Soluplus/SIF, MP470FB 0.6 mg/mL, 4 hr): 0.374 | MP470FB content in the supernatant ([2]; 5.0% Soluplus/SIF, MP470FB 0.6 mg/mL, 6 hr): 0.411 | MP470FB content in the supernatant ([2]; 5.0% Soluplus/SIF, MP470FB 0.6 mg/mL, 24 hr): 0.467 | MP470FB content in the supernatant ([2]; Control (SIF), MP470FB 0.2 mg/mL, 30 min): 0.002 | MP470FB content in the supernatant ([2]; Control (SIF), MP470FB 0.2 mg/mL, 2 hr): 0 | MP470FB content in the supernatant ([2]; Control (SIF), MP470FB 0.2 mg/mL, 4 hr): 0 | MP470FB content in the supernatant ([2]; Control (SIF), MP470FB 0.2 mg/mL, 6 hr): 0 | MP470FB content in the supernatant ([2]; Control (SIF), MP470FB 0.2 mg/mL, 24 hr): 0 | MP470FB content in the supernatant ([2]; Control (SIF), MP470FB 0.6 mg/mL, 30 min): 0.002 | MP470FB content in the supernatant ([2]; Control (SIF), MP470FB 0.6 mg/mL, 2 hr): 0 | MP470FB content in the supernatant ([2]; Control (SIF), MP470FB 0.6 mg/mL, 4 hr): 0 | MP470FB content in the supernatant ([2]; Control (SIF), MP470FB 0.6 mg/mL, 6 hr): 0 | MP470FB content in the supernatant ([2]; Control (SIF), MP470FB 0.6 mg/mL, 24 hr): 0 | time MP470 is kept stable in solution by interaction with Soluplus ([2]; Soluplus/SIF): at least 24 hours
